# Patent US5700639A, “Method for the detection of metabolically labelled DNA” (Boehringer Mannheim GmbH, priority 1993, dated 1997)
# Assays:
# [1] = system: HL60 cells; test: Detection of metabolically labelled DNA fragments in the cytoplasm of apoptotic cells (4 hours incubation); format: cell-based; conditions: for A (405 nm), metabolically labelled DNA fragments in the cytoplasm: 37° C.
# Method: (§1) The cells to be examined (e.g. HL60 cells, ATCC CCL 240) are firstly metabolically labelled by incubation with 0.01 mmol/l bromodeoxyuridine for 18 hours at 37° C. After removing the excess bromodeoxyuridine that is not incorporated into DNA by washing with culture medium, the cells (200 μl in each case, see Table 1 for cell number) are incubated for 4 hours at 37° C. with 2 μg/ml camptothecin (Sigma, Munich) in a microtitre plate. Afterwards 20 μl 10-fold concentrated lysis buffer (PBS/50 mmol/l EDTA/2 % Tween 20) is added to each preparation for the lysis, the microtitre plate is centrifuged and 100 μl supernatant is taken from each well for the test (PBS=137 mmol/l NaCl; 2.7 mmol/l KCl; 8 mmol/l Na2 HPO4 and 1.5 mmol/l KH2 PO4).
# In order to detect the metabolically labelled DNA, a further microtitre plate is coated with an antibody against DNA (5 μg/ml, Boehringer Mannheim GmbH, Ident. No. 1525760) in 100 mmol/l NaCO3 buffer pH 9.6. Subsequently the metabolically labelled DNA is bound to the wall antibody by addition of 100 μl supernatant (see above) per well and incubation for 90 minutes at room temperature. After washing with PBS, the remaining liquid is removed from the wells of the microtitre plate by for example knocking. Afterwards the bound double-stranded DNA is denatured or partially degraded by microwave treatment (5 min. 650 watts, AEG Micromat 275Z) or alternatively by addition of 100 μl (corresponding to 1 unit per well of the microtitre plate) exonuclease III (Boehringer Mannheim GmbH, Catalogue No. 779717). The preparation in which the DNA has been denatured by microwave treatment is subsequently cooled for 10 minutes at 8° C. in a refrigerator. The preparation treated with exonuclease III is subsequently washed three times with PBS.
# HL60 cells (ATCC CCL 240) were firstly metabolically labelled with bromodeoxyuridine as stated in example 1. After washing out excess bromodeoxyuridine, the cells are incubated in a microtitre plate at 37° C. for 3 or 4 hours with various concentrations of camptothecin (5000 to 0 ng/ml). Subsequently the microtitre plate is centrifuged, an aliquot of the cell culture supernatant (100 μl/well) is taken for the detection of metabolically labelled DNA in the cell culture supernatant according to example 2 and the cells remaining in the microtitre plate are lysed by addition of 100 μl/well 2-fold concentrated lysis buffer (PBS/10 mmol/l EDTA/0.4% Tween 20). The detection of the metabolically labelled DNA in the lysate obtained in this way is then carried out as described in example 1.
# [2] = system: HL60 cells; test: Detection of metabolically labelled DNA fragments in apoptotic cells (3 hours incubation); format: cell-based; conditions: 200 ng/ml camptothecin, 37° C.
# Method: as §1
# In order to detect the metabolically labelled DNA, a further microtitre plate is coated with an antibody against DNA (5 μg/ml, Boehringer Mannheim GmbH, Ident. No. 1525760) in 100 mmol/l NaCO3 buffer pH 9.6. Subsequently the metabolically labelled DNA is bound to the wall antibody by addition of 100 μl supernatant (see above) per well and incubation for 90 minutes at room temperature. After washing with PBS, the remaining liquid is removed from the wells of the microtitre plate by for example knocking. […]
smiles,measurement,setting,value
CC[C@@]1(O)C(=O)OCc2c1cc1n(c2=O)Cc2cc3ccccc3nc2-1 [camptothecin],"A (405 nm), metabolically labelled DNA fragments in the cytoplasm",[1]; 1.6 ng/ml camptothecin,0.295
same,"A (405 nm), metabolically labelled DNA fragments in the cytoplasm",[1]; 8 ng/ml camptothecin,0.342
same,"A (405 nm), metabolically labelled DNA fragments in the cytoplasm",[1]; 40 ng/ml camptothecin,0.625
same,"A (405 nm), metabolically labelled DNA fragments in the cytoplasm",[1]; 200 ng/ml camptothecin,1.006
same,"A (405 nm), metabolically labelled DNA fragments in the cytoplasm",[1]; 1000 ng/ml camptothecin,1.457
same,"A (405 nm), metabolically labelled DNA fragments in the cytoplasm",[1]; 5000 ng/ml camptothecin,1.677
same,"amount of cytoplasmic, metabolically labelled DNA fragments (dose dependence)",[1]; camptothecin 5000 to 0 ng/ml,correlates with the amount of camptothecin
same,"A (405 nm), metabolically labelled DNA, cell culture supernatant",[2]; cell culture supernatant (according to example 2),0.020
same,"A (405 nm), metabolically labelled DNA, cytoplasm (lysate after detergent treatment)",[2]; cytoplasm (lysate after detergent treatment),0.770
